Values of other authors in patent US9943488B2, “Gamma hydroxybutyric acid granules” (DEBREGEAS ET ASSOCIES PHARMA, priority 2011, dated 2018).

Conditions: after oral administration

For `O=C(O)CCCO` [GHB, Gamma-hydroxybutyric acid], which Absolute bio-availability is on record?
Its Absolute bio-availability is 25%.
